According to article PMC6283615, “Anilinoquinoline based inhibitors of trypanosomatid proliferation” (PLoS Neglected Tropical Diseases, 2018):
≈ marks a conversion by molar mass, not a printed value.

Tests used:
L. major amastigote = test: L. major intracellular amastigote luciferase assay in RAW 264.7 macrophages; assay type: cell-based, Leishmania major; conditions: intracellular amastigotes in RAW 264.7 macrophages, 96 h
Experimental: Amastigote assays were performed using pLEXSY-hyg2-luciferase L. major transfected promastigotes and the murine RAW 264.7 macrophage cell line (ATCC TIB-71, Manassas, VA). Briefly, luciferase-expressing promastigotes of each Leishmania species were generated by adding a luciferase encoding region to the pLEXSY-hyg2 vector (Jena Biosciences, Germany) as described. One μg of the linearized pLEXSY-hyg2-luciferase vector were electroporated (480 V, 13 Ω, and 500 μF) into 4×10^7 Leishmania promastigotes. Selection for stable promastigote transfectants was carried out using hygromycin B (100 μg/mL). RAW 264.7 macrophages were maintained in growth medium (Dulbecco’s Modified Eagle’s Medium supplemented with heat-inactivated 10% FBS (Life Technologies)). Cells were harvested and resuspended in growth medium at 2.0×10^5 cells/mL, and 1×10^4 cells/well were dispensed (final volume 50 μL) in each well of a 384 well tissue-culture treated white plate using a EVO Freedom liquid handling system (Tecan, Durham, NC). Plates were incubated at 37°C in 5% CO2 for 24 h after which the culture medium was removed from each well using the EVO Freedom liquid handler. Metacyclic phase pLEXSY-hyg2-luciferase-Leishmania promastigotes (MOI = 1:10 L. major) were added to each assay plate well and allowed to infect the RAW 264.7 macrophages. After an overnight incubation, the growth medium was aspirated and each well was washed three times with 40 μL of fresh growth medium to remove non-internalized promastigotes. After the third wash, 69.2 μL of growth medium was added to each well. Compound dilutions (final concentration ranges 0.5–10,000 ng/mL) were generated and dispensed using the liquid handling system. Compound treated plates were incubated at 37°C in 5% CO2 for 96 h. After incubation, 7.5 μL of a luciferin solution (Caliper Life Science, Waltham, MA) diluted to 150 μg/mL was added to each well, and the plates were incubated for 30 min at 37°C in the dark. Data were captured using an Infinite M200 plate reader (Tecan). EC50s were generated for each concentration response test using GraphPad Prism software 6.0.

[1] = tested on: T. b. brucei (strain 427); test: T. b. brucei proliferation assay (PrestoBlue, 48 h); assay type: cell-based, Trypanosoma brucei brucei
Experimental: The assay was performed following a previously reported procedure. Briefly, in a 96-well plate, compounds were added in triplicates at 50 μM and in serial dilutions 1:2 in HMI-9 medium. To each well, 100 μL of 2.5×10^3 T. b. brucei (strain 427, received as a gift from Dr. C. C. Wang at UCSF) in HMI-9 medium was were added and incubated at 37°C, 5% CO2 for 48 h. Following incubation, 20 μL of PrestoBlue were added to each well and incubated for additional 4 h. Fluorescence was read at 530 nm excitation and 590 nm emission.

[2] = tested on: T. cruzi amastigote (Tulahuen strain expressing β-galactosidase); test: Intracellular T. cruzi assay in 3T3 cells (beta-galactosidase, 96 h); assay type: cell-based, Trypanosoma cruzi; conditions: intracellular in 3T3 cells, 96 h; read-out: T. cruzi amastigote EC50
Experimental: In a 96-well plate, 5×10^4 3T3 cells in DMEM without phenol red supplemented with 2% FBS were added to each well. Cells were incubated for 2 h to allow for attachment. Compounds were added in triplicates at 50 μM and in serial dilutions 1:2. To each well, 5×10^4 T. cruzi trypomastigotes (Tulahuen strain expressing β-galactosidase) were added and incubated at 37°C, 5% CO2 for 96 h. Following incubation, 50 μL of 500 μM chlorophenol Red-β-D-galactopyranoside (CPRG) in phosphate-buffered saline with 0.5% NP40 was added to each well and incubated at 37°C, 5% CO2 for 4 h. Absorbance was read at 590–595 nm.

NIH/3T3 cells = test: Drug toxicity to 3T3 cells (Alamar Blue, 96 h); assay type: cell-based
Experimental: In a 96-well plate, 5×10^4 NIH/3T3 (ATCC CRL-1658) cells (purchased from ATCC) in DMEM without phenol red supplemented with 2% FBS were added to each well. Cells were incubated for 2 h to allow for attachment. Compounds were added in triplicates at 200 μM and in serial dilutions 1:2 and incubated at 37°C, 5% CO2 for 96 h. […] Following incubation, 10 μL of Alamar Blue (ThermoFisher) were added to each well and cells incubated at 37°C, 5% CO2 for 4 h. Absorbance was read at 590–595 nm.

HepG2 cells = test: Drug toxicity to HepG2 cells (MTT, 48 h); assay type: cell-based, human; conditions: tested concentration ranges based on compound solubility
Experimental: HepG2 cells were cultured in complete Minimal Essential Medium prepared by supplementing MEM with 0.19% sodium bicarbonate, 10% heat inactivated FBS, 2 mM L-glutamine, 0.1 mM MEM non-essential amino, 0.009 mg/mL insulin, 1.76 mg/mL bovine serum albumin, 20 units/mL penicillin–streptomycin, and 0.05 mg/mL gentamycin. HepG2 cells cultured in complete MEM were first washed with 1× Hank’s Balanced Salt Solution (Invitrogen #14175095), trypsinized using a 0.25% trypsin/EDTA solution, assessed for viability using trypan blue, and resuspended at 250,000 cells/mL. Using a Tecan EVO Freedom robot, 38.3 μL of cell suspension were added to each well of clear, cell culture-treated 384-well microtiter plates for a final concentration of 9570 liver cells per well, and plated cells were incubated overnight in 5% CO2 at 37°C. Drug plates were prepared with the Tecan EVO Freedom using sterile 96 well plates containing twelve duplicate 1.6-fold serial dilutions of each test compound suspended in DMSO. 4.25 μL of diluted test compound was then added to the 38.3 μL of media in each well providing a […] final dilution of compound. Compounds were tested from a range of 57 ng/mL to 10,000 ng/mL for all assays. Mefloquine was used as a plate control for all assays with a concentration ranging from 113 ng/mL to 20,000 ng/mL. After a 48 h incubation period, 8 μL of a 1.5 mg/mL solution of MTT diluted in complete MEM media was added to each well. All plates were subsequently incubated in the dark for 1 h at room temperature. After incubation, the media and drugs in each well was removed by shaking the plate over sink, and the plates were left to dry in a fume hood for 15 mins. Next, 30 μL of isopropanol acidified by addition of HCl at a final concentration of 0.36% was added to dissolve the formazan dye crystals created by reduction of MTT. Plates are put on a 3-D rotator for 15–30 mins. Absorbance was determined in all wells using a Tecan iControl 1.6 Infinite plate reader.

Aqueous solubility = assay type: physicochemical
[3] = Human plasma protein binding; assay type: in vitro ADME
LogD7.4 = assay type: physicochemical; conditions: pH 7.4
[4] = Human liver microsome intrinsic clearance; assay type: in vitro ADME
[5] = Rat hepatocyte intrinsic clearance; assay type: in vitro ADME

SMILES | EC50 (L. major amastigote) | EC50 [1] | EC50 [2] | 3T3 TC50 (NIH/3T3 cells) | HepG2 TC50 (HepG2 cells) | solubility (Aqueous solubility) | Human PPB [3] | LogD7.4 (LogD7.4) | Human Liver Microsome CLint [4] | Rat Hepatocyte CLint [5]
Cc1nnc(Nc2ccnc3cc(-c4ccc(S(=O)(=O)N5CCN(C)CC5)cc4)ccc23)nc1C [NEU-1028] | 4 µM | > 50 µM | > 50 µM | > 100 µM | 6.4 µM | 1.5 µM (≈ 0.734 µg/mL) | 93% | 3.4 |  | 
Cc1nnc(Nc2ccc3c(Nc4cnccn4)ccnc3c2)nc1C [NEU-2151] | 26 µM | 2.3 µM | > 50 µM | > 100 µM | 22 µM |  |  |  |  | 
Cc1cc(Nc2ccnc3cc(-c4ccc(S(=O)(=O)N5CCN(C)CC5)cc4)ccc23)sn1 [NEU-1023] | 8.4 µM | 0.6 µM | 25 µM | > 100 µM | 35 µM | < 1 µM | 99% | 4.2 |  | 
CN1CCN(S(=O)(=O)c2ccc(-c3ccc4c(Nc5ccnnc5)ccnc4c3)cc2)CC1 [NEU-1020] | 22 µM | > 50 µM | > 50 µM | > 100 µM | 36 µM | > 1000 µM | 57% | -0.5 |  | 
CN1CCN(S(=O)(=O)c2ccc(-c3ccc4c(Nc5cccnc5)ccnc4c3)cc2)CC1 [NEU-1019] | 22 µM | 5.4 µM | > 50 µM | > 100 µM | 36 µM | 175 µM (≈ 80.4 µg/mL) | 85% | 2 |  | 
c1cnc(Nc2ccnc3cc(-c4cn[nH]c4)ccc23)cn1 [NEU-2088] | 3 µM | 0.29 µM | > 50 µM |  | 4.5 µM | 1 µM (≈ 0.288 µg/mL) |  | 2.6 | 130 µL/min/mg | 5 μL/min/10^6 cells
COc1ccc(Nc2ccnc3cc(-c4cnn(C)c4)ccc23)cc1Cl [NEU-2130] | 29 µM | 2.6 µM | 1.9 µM | > 100 µM | 44 µM |  |  |  |  | 
Cc1cc(Nc2ccc3c(Nc4cnccn4)ccnc3c2)on1 [NEU-2150] | 31 µM | 29 µM | 21 µM | > 100 µM | 48 µM |  |  |  |  | 
COc1ccc(Nc2ccnc3cc(Nc4nccc(N5CCN(C)CC5)n4)ccc23)cc1Cl [NEU-2090] | 2.3 µM | 0.35 µM | > 20 µM |  | 7.6 µM | 570 µM (≈ 271 µg/mL) | 99% | 3.3 |  | 7.2 μL/min/10^6 cells
CN1CCN(S(=O)(=O)c2ccc(-c3ccc4c(Nc5ncc(Cl)cn5)ccnc4c3)cc2)CC1 [NEU-1025] | 8.7 µM | 1.5 µM | 8.8 µM | 11 µM | 31 µM | 4.8 µM (≈ 2.38 µg/mL) | 99% | 4.1 |  | 
CN1CCN(S(=O)(=O)c2ccc(-c3ccc4c(Nc5cnc(C#N)cn5)ccnc4c3)cc2)CC1 [NEU-1024] | 19 µM | 3 µM | > 50 µM | > 100 µM | 31 µM | < 1 µM | 97% | 3.7 |  | 
CN1CCN(S(=O)(=O)c2ccc(-c3ccc4c(Nc5ccc6[nH]nnc6c5)ccnc4c3)cc2)CC1 [NEU-1018] | 17 µM | > 50 µM | > 50 µM | > 100 µM | 28 µM | < 1 µM | 98% | 3.4 |  | 
COc1ccc(Nc2ccnc3cc(-c4cn[nH]c4)ccc23)cc1Cl [NEU-2087] | 29 µM | 0.91 µM | > 50 µM |  | 23 µM | 2 µM (≈ 0.702 µg/mL) | 97% | 3.5 | 8 µL/min/mg | 5 μL/min/10^6 cells
